Experimental data as given in patent US10899769B2, “Imidazopiperazinone inhibitors of transcription activating proteins” (Board of Regents, The University of Texas System, priority 2018, dated 2021).

Assays:
[1] = target: GST-CBP(1081-1197) bromodomain (Homo sapiens (Human), UniProt Q92793); test: CBP AlphaScreen Assay; settings: binding to biotin-H4(1-21) Ac-K5/8/12/16
Description: (§1) Specific binding of the CBP or BRD4 bromodomain to the acetylated peptide derived from the H4 histone substrate (tetra acetylated H4(1-21) Ac-K5/8/12/16) was measured in absence or presence of inhibitors. The GST tagged bromodomains of CBP (1081-1197) and BRD4 (49-170) were obtained from BPS Bioscience and binding to the biotinylated H4(1-21) Ac-K5/8/12/16 (AnaSpec. 64989) was assessed via AlphaScreen technology (Perkin Elmer).
(§2) 5 nM GST-CBP(1081-1197) and 20 nM biotin-H4(1-21) Ac-K5/8/12/16 (AnaSpec. 64989) were incubated with varying concentrations of CBP inhibitors in 15 μL of buffer containing 50 mM HEPES 7.5, […], 1 mM TCEP, and 0.003% Tween-20. After 30 minutes incubation at room temperature, 15 μL of detection buffer (BPS Bio. 33006) containing 7 μg/mL of Glutathione AlphaLisa acceptor beads (Perkin Elmer AL109) and 14 μg/mL of Streptavidin donor beads (Perkin Elmer 676002) was then added to the previous mixture. The reaction was incubated for an additional 2 hours at room temperature, and the AlphaScreen signal was quantified using the Envision Multilabel plate reader. As negative control, GST-CBP(1081-1197) was incubated with the non-acetylated biotin-H4(1-21) peptide(AnaSpec. 62555) and in presence of 0.25% of final DMSO concentration.
(§3) the binding of 2.5 nM of BRD4(49-170) to 10 nM biotin-H4(1-21) Ac-K5/8/12/16 (AnaSpec. 64989) was assessed following the same procedure described for the CBP assay. The standard dose response curves were fitted by Genedata Screener software using the variable-slope model: Signal=Signalnegative control+(SignalDMSO control−Signalnegative control)/(1+(IC50/Dose)^Hill slope).
(§4) Only Signal and Dose in the equation were treated as know values.

BRD4(49-170) bromodomain = BRD4(49-170) bromodomain (Homo sapiens (Human), UniProt O60885); test: BRD4 AlphaScreen Assay; settings: binding to biotin-H4(1-21) Ac-K5/8/12/16
Description: as §1, §2, §3, §4

Sequence of GST-CBP(1081-1197) bromodomain (Q92793 1081-1197): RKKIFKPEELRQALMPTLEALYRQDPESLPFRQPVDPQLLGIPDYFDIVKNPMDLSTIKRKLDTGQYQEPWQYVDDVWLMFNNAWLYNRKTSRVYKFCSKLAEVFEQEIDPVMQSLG

Row | Structure (SMILES) | IC50 [1] [nM] | IC50 (BRD4(49-170) bromodomain) [nM]
1 | CC1C(=O)N(C)Cc2c(-c3cccc4nc(-c5cnn(C)c5)c(C(F)F)cc34)nc(C3CCS(=O)(=O)CC3)n21 (single isomer, unassigned) [Example 29b, 1-(3-(Difluoromethyl)-2-(1-methyl-1H-pyrazol-4-yl)quinolin-5-yl)-3-(1,1-dioxidotetrahydro-2H-thiopyran-4-yl)-5,7-dimethyl-7,8-dihydroimidazo[1,5-a]pyrazin-6(5H)-one] | 32 | 592
2 | CC1C(=O)N(C)Cc2c(-c3cccc4cc(-c5ccn(C)n5)ncc34)nc(C3CC3)n21 (stereo not drawn) [Example 62, 3-cyclopropyl-5,7-dimethyl-1-(3-(l-methyl-1H-pyrazol-3-yl)isoquinolin-8-yl)-7,8-dihydroimidazo[1,5-a] pyrazin-6(5H)-one] | 2 | 164
3 | CNC(=O)N1CCC(c2nc(-c3cccc4nc(-c5cnn(C)c5)c(C(F)F)cc34)c3n2C(C)C(=O)N(C)C3)CC1 (centres unmarked) [Example 79, 4-(1-(3-(difluoromethyl)-2-(1-methyl-1H-pyrazol-4-yl)quinolin-5-yl)-5,7-dimethyl-6-oxo-5,6,7,8-tetrahydroimidazo[1,5-a]pyrazin-3-yl)-N-methylpiperidine-1-carboxamide] | 39 | 2430
4 | CC1C(=O)N(C)Cc2c(-c3cccc4nc(-c5cnn(C)c5)c(C(F)F)cc34)nc(C3CN(CC(F)(F)F)C3)n21 (centres unmarked) [Example 21, 1-(3-(Difluoromethyl)-2-(1-methyl-1H-pyrazol-4-yl)quinolin-5-yl)-5,7-dimethyl-3-(1-(2,2,2-trifluoroethyl)azetidin-3-yl)-7,8-dihydroimidazo[1,5-a]pyrazin-6(5H)-one] | 13 | 6160
5 | CN1Cc2c(-c3cccc4cc(N5CCOCC5)ncc34)nc(C3CCOCC3)n2CC1=O [Example 94, 7-methyl-1-(3-morpholinoisoquinolin-8-yl)-3-(tetrahydro-2H-pyran-4-yl)-7,8-dihydroimidazo[1,5-a] pyrazin-6(5H)-one] | 145 | ≥ 25000
6 | C[C@H]1C(=O)N(C)Cc2c(-c3cccc4nc(-c5cnn(C)c5)c(C(F)F)cc34)nc(C3CCOCC3)n21 [Example 5b, (S)-1-(3-(difluoromethyl)-2-(1-methyl-1H-pyrazol-4-yl)quinolin-5-yl)-5,7-dimethyl-3-(tetrahydro-2H-pyran-4-yl)-7,8-dihydroimidazo[1,5-a]pyrazin-6(5H)-one] | 2670 | 25000
7 | CC1C(=O)N(C)Cc2c(-c3cccc4nc(-c5cnn(C)c5)c(C(F)F)cc34)nc(C3CCN(CC(F)(F)F)CC3)n21 (centres unmarked) [Example 77, 1-(3-(difluoromethyl)-2-(1-methyl-1H-pyrazol-4-yl)quinolin-5-yl)-5,7-dimethyl-3-(1-(2,2,2-trifluoroethyl)piperidin-4-yl)-7,8-dihydroimidazo [1,5-a] pyrazin-6(5H)-one] | 34 | 2890
8 | CN1Cc2c(-c3cccc4nc(-c5cnn(C)c5)c(C(F)F)cc34)nc(C3CCOCC3)n2CC1=O [Example 93, 1-(3-(difluoromethyl)-2-(1-methyl-1H-pyrazol-4-yl)quinolin-5-yl)-7-methyl-3-(tetrahydro-2H-pyran-4-yl)-7,8-dihydroimidazo [1,5-a] pyrazin-6(5H)-one] | 357 | 25000
9 | Cc1ncc(-c2cc3cccc(-c4nc(C5CCOCC5)n5c4CN(C)C(=O)C5C)c3cn2)s1 (single isomer, unassigned) [Example 31b, 5,7-Dimethyl-1-(3-(2-methylthiazol-5-yl)isoquinolin-8-yl)-3-(tetrahydro-2H-pyran-4-yl)-7,8-dihydroimidazo[1,5-a]pyrazin-6(5H)-one] | 2 | 106
10 | CC1C(=O)N(C)Cc2c(-c3cccc4nc(-c5nsc(=O)[nH]5)c(C(F)F)cc34)nc(C3CC3)n21 (centres unmarked) [Example 46, 3-(5-(3-Cyclopropyl-5,7-dimethyl-6-oxo-5,6,7,8-tetrahydroimidazo[1,5-a]pyrazin-1-yl)-3-(difluoromethyl)quinolin-2-yl)-1,2,4-thiadiazol-5(4H)-one] | 2 | 341
11 | Cc1c(-c2cc3cccc(-c4nc(C5CC5)n5c4CN(C)C(=O)C5C)c3cn2)cnn1C (centres unmarked) [Example 59, 3-cyclopropyl-1-(3-(1,5-dimethyl-1H-pyrazol-4-yl)isoquinolin-8-yl)-5,7-dimethyl-7,8-dihydroimidazo[1,5-a] pyrazin-6(5H)-one] | 4 | 496
12 | CC1C(=O)N(C)Cc2c(-c3cccc4cc(-c5nsc(=O)[nH]5)ncc34)nc(C3CC3)n21 (centres unmarked) [Example 47, 3-(8-(3-Cyclopropyl-5,7-dimethyl-6-oxo-5,6,7,8-tetrahydroimidazo[1,5-a]pyrazin-1-yl)isoquinolin-3-yl)-1,2,4-thiadiazol-5(4H)-one] | 2 | 1460
13 | CC1C(=O)N(C)Cc2c(-c3cc4c(-c5cnn(C)c5)nn(C)c4cc3F)nc(C3CCOCC3)n21 (centres unmarked) [Example 43, 1-(6-Fluoro-1-methyl-3-(1-methyl-1H-pyrazol-4-yl)-1H-indazol-5-yl)-5,7-dimethyl-3-(tetrahydro-2H-pyran-4-yl)-7,8-dihydroimidazo[1,5-a]pyrazin-6(5H)-one 2,2,2-trifluoroacetate] | 6 | 1440
14 | CC1C(=O)N(C)Cc2c(-c3cccc4cc(-c5ncco5)ncc34)nc(C3CC3)n21 (centres unmarked) [Example 66, 3-cyclopropyl-5,7-dimethyl-1-(3-(oxazol-2-yl)isoquinolin-8-yl)-7,8-dihydroimidazo[1,5-a] pyrazin-6(5H)-one] | 11 | 1590
15 | CC1C(=O)N(C)Cc2c(-c3ccc4ccncc4c3)nc(C3CC3)n21 (centres unmarked) [Example 53, 3-cyclopropyl-1-(isoquinolin-7-yl)-5,7-dimethyl-7,8-dihydroimidazo[1,5-a] pyrazin-6(5H)-one] | 159 | 2960
16 | Cc1nn(C)cc1-c1cc2cccc(-c3nc(C4CCOCC4)n4c3CN(C)C(=O)C4C)c2cn1 (centres unmarked) [Example 87, 1-(3-(1,3-dimethyl-1H-pyrazol-4-yl)isoquinolin-8-yl)-5,7-dimethyl-3-(tetrahydro-2H-pyran-4-yl)-7,8-dihydroimidazo[1,5-a] pyrazin-6(5H)-one] | 77 | 10700
17 | CC1C(=O)N(C)Cc2c(-c3cccc4cc(-c5noc(=O)[nH]5)ncc34)nc(C3CC3)n21 (single isomer, unassigned) [Example 44b, 3-(8-(3-Cyclopropyl-5,7-dimethyl-6-oxo-5,6,7,8-tetrahydroimidazo[1,5-a]pyrazin-1-yl)isoquinolin-3-yl)-1,2,4-oxadiazol-5(4H)-one] | 1 | 1460
18 | CC1C(=O)N(C)Cc2c(-c3cccc4nc(-c5cnn(C)c5)c(C(F)F)cc34)nc(C3CCN(CCO)CC3)n21 (centres unmarked) [Example 84, 1-(3-(difluoromethyl)-2-(1-methyl-1H-pyrazol-4-yl)quinolin-5-yl)-3-(1-(2-hydroxyethyl)piperidin-4-yl)-5,7-dimethyl-7,8-dihydroimidazo[1,5-a] pyrazin-6(5H)-one] | 230 | 11700
19 | Cc1nn(C)cc1-c1cc2cccc(-c3nc(C4CC4)n4c3CN(C)C(=O)C4C)c2cn1 (centres unmarked) [Example 63, 3-cyclopropyl-1-(3-(1,3-dimethyl-1H-pyrazol-4-yl)isoquinolin-8-yl)-5,7-dimethyl-7,8-dihydroimidazo[1,5-a] pyrazin-6(5H)-one] | 1 | 76
